# Calls of active or inactive are those of the source. The rule behind the calls is not given here.
# Key:
# [1] = molecular target: T1, Alpha glucosidase (Homo sapiens, UniProt O43451+P10253+P14410+Q2M2H8); experiment: Inhibition of alpha-glucosidase (unknown origin) using p-nitrophenyl alpha-D-glucoside as substrate preincubated for 0.5 hrs followed substrate addition and measured after 1 hr by colorimetric method; format: protein assay
# [2] = test system: RAW264.7; experiment: Inhibition of NO production in LPS-stimulated mouse RAW264.7 cells at > 100 uM incubated for 24 hrs by Griess reagent-based assay; format: functional, cell-based
# [3] = test system: RAW264.7; experiment: Inhibition of NO production in LPS-stimulated mouse RAW264.7 cells incubated for 24 hrs by Griess reagent-based assay; format: functional, cell-based; settings: RAW264.7, 24 h
# [4] = molecular target: T1, Alpha glucosidase; experiment: Inhibition of alpha-glucosidase (unknown origin) at > 100 uM using p-nitrophenyl alpha-D-glucoside as substrate preincubated for 0.5 hrs followed substrate addition and measured after 1 hr by colorimetric method; format: protein assay
Structure (SMILES),IC50 [1] [µM],IC50 [3] [µM],inhibition [4],inhibition [2]
CC(C)=CCC/C(C)=C/CCC(C)(O)CCc1c(O)c(O)cc2oc3cc(O)cc(O)c3c(=O)c12 (racemic),25.4,7.7,,
CC(C)=CCC/C(C)=C/CC/C(C)=C/CCC(C)(O)CCc1c(O)c(O)cc2oc3cc(O)cc(O)c3c(=O)c12 (racemic),15.4,5.8,,
COc1c(O)cc2oc3cc(O)c(CC=C(C)C)c(O)c3c(=O)c2c1C/C=C(\C)CCC=C(C)C [COWANIN],37.4,,,inactive
COc1c(O)cc2oc3cc(O)c(CCC(C)(C)O)c(O)c3c(=O)c2c1CC=C(C)C,,5.4,inactive,
N=C(N)NN [PIMAGEDINE],,19.9,,
COc1cc2oc3cc(O)c(OC)c(CC=C(C)C)c3c(=O)c2c(O)c1CC=C(C)C,22.6,,,inactive
CC(C)=CC[C@@H]1C[C@@]23CCC(C)(C)OC2=C(C(=O)c2ccccc2)C(=O)[C@H](C3=O)[C@@]1(C)CCCC(C)(C)O,,11,inactive,
CC(C)=CCC/C(C)=C/Cc1c(O)cc2oc3c(O)cccc3c(=O)c2c1O,,,inactive,inactive
COc1c(O)cc2oc3cc4c(c(O)c3c(=O)c2c1CC=C(C)C)C=CC(C)(C)O4 [MANGOSTANIN],11.4,18.6,,

# Further lines, with some results ahead:
IC50 [1] [µM],IC50 [3] [µM],inhibition [4],Structure (SMILES),inhibition [2]
76.2,,,CC(C)=CCC/C(C)=C/CC/C(C)=C/Cc1c(O)c(O)cc2oc3cc(O)cc(O)c3c(=O)c12,inactive
,,inactive,CC(C)(O)CCC[C@@]1(C)[C@H](CCC(C)(C)O)C[C@@]23CCC(C)(C)OC2=C(C(=O)c2ccccc2)C(=O)[C@@H]1C3=O,inactive
,,inactive,CC1(C)CCc2c(cc3oc4c(O)c(O)ccc4c(=O)c3c2O)O1,inactive
28.7,13.4,,COc1c(O)cc2oc3cc(O)c(C/C=C(\C)CO)c(O)c3c(=O)c2c1C/C=C(\C)CCC=C(C)C,
